Source: patent US20120003270A1, “6-SUBSTITUTED ISOFLAVONOID COMPOUNDS AND USES THEREOF” (priority 2008, published 2012)
Marks after values point to notes of the source that are not given here.

Legend:
[1] = test system: 5-lipoxygenase (5-LO); test: Synthesis of LTB4 and its metabolites in calcium ionophore-stimulated neutrophils (HPLC); assay type: cell-based, human; details: for IC50: Neutrophil, human neutrophils, calcium ionophore, read-out: IC50 for the production of LTB4
Method: The pathway for LTB4 synthesis involves initial release of AA from phospholipids by a Ca-dependent PLA2. The free AA is then oxygenated at by 5-LO (requiring enzyme activation by FLAP) to generate an epoxide intermediate (LTA4). LTA4 is then converted to LTB4 by LTA4 hydrolase. LTB4 is metabolised (and deactivated) by a cytochrome P-(CYP) 450 […] to produce 20-hydroxy and 20-carboxy metabolites. These metabolites are also measured in the HPLC assay.
Neutrophils were isolated from citrated human venous blood to >90% purity by centrifugation through Ficoll, dextran sedimentation and lysis of erythrocytes (Boyum 1986). Cells were washed in HEPES buffered Hanks solution (HBHS) and then suspended at 4.5 million cells/mL in HBHS containing 0.1% BSA (HBHS+BSA).
Experiments had been carried out previously to optimise the stimulation of neutrophils by calcium ionophore. At 37° C., 900 μL of cell suspension (4 million cells) was incubated with 3′,7-dihydroxyisoflav-3-ene (or vehicle) in 10 μL DMSO for 5 min before addition of 100 μL of 25 ng/μL calcium ionophore (free acid form, Sigma) with 0.5% DMSO in HBHS containing 0.1% bovine serum albumin (HBHS+BSA). The cells were incubated for 10 min then pelleted by centrifugation at 1200× g at 4° C. for 5 min, and the cell free supernatant used to quantitate the levels of LTB4 and its metabolites.
To each 900 μL aliquot of the supernatant, 25 μL of 2.5 ng/μL prostaglandin B2 (PGB2) in ethanol was added as internal standard. The solution was acidified to […] with 2M formic acid and the mixture extracted with 2 mL ethyl acetate and vigorous vortexing. The organic layer was collected and dried under nitrogen in a glass vial before being reconstituted in 50 μL of the reconstitution solution (water:methanol:acetonitrile at 2:1:1).
Analysis was carried out using a HPLC system with a 125-4 LiChrospher®100 RP-18 (5 μm) column (Agilent Technologies) and a gradient system adapted from a published method (Mita et al. 1988) to separate LTB4, its oxidation products 20-hydroxy LTB4 (20-OH-LTB4) and 20-carboxy LTB4 (20-COOH-LTB4), as well as PGB2. At 1 ml/min flow rate, a combination of three different mobile phase solutions were used. UV absorbance was monitored at 270 nm, and LTB4 and its metabolites were quantitated by comparison of peak areas with that of internal standard and a standard curve prepared earlier.

[2] = test system: serum-treated zymozan air pouch inflammation; test: Rat air pouch assay; assay type: in vivo; details: for Cells in lavage fluid (×10^−7): intrapouch, mean ± SD; for Cells in lavage fluid (×10^−7) / PMN in tissue sections (per 100 squares): 4 h after STZ; for PMN in tissue sections (per 100 squares): pouch wall
Method: Air pouches were raised on the dorsum of female Dark Agouti rats, approximately seven weeks of age. To promote the formation of a cellular membrane lining the inside of each pouch, the pouches were maintained by re-inflating on days 2 and 5 after the initial injection of air. On re-inflation, the pouch was first deflated to ensure the needle was positioned correctly, before being re-inflated with 2 mL of sterile air. Using this protocol, the pouches remained inflated until use on day 7, when they were injected with 0.5 ml of either test compound or vehicle control. After 15 min, air pouches were injected with serum-treated zymozan (STZ—500 μg). Lavage of the air pouch (4×2 ml lavages) was performed at 4 h and leucocytes counted, after which the rats were killed, the air pouch excised and processed in formalin for histology. The sections were blinded to the person counting. Using a graticule with 100 squares and the 40× objective, the number of polymorphs (PMN) was counted in the pouch lining at 10 different and non-adjacent sites. Group sizes were 5-6 rats. Data were analysed for statistical significance within each experiment and using an unpaired t test. Compounds (1) and (3) were examined in this assay.

[3] = test system: HUVECs; test: Microscopic appearance of HUVECs; assay type: cell-based, human
Method: An effect on cell growth was observed microscopically at 100 μM but not at the lower doses. Normal HUVECs were predominantly epithelioid but included some spindle shaped cells. Cells were mainly healthy and viable, as indicated by their translucent appearance and adherence to the culture dish. Floating cells were presumed non-viable.

[4] = test system: neonatal fibroblast foreskin (NFF); test: Toxicity in normal cells (MTT), NFF; assay type: cell-based; details: Homo sapiens, 120 h, 5 days, top concentration 150 μM, read-out: Normal cell viability IC50
Method: Human neonatal fibroblast foreskin (NFF—a gift from Dr. Peter Parsons, Queensland Institute of Medical Research) or rabbit kidney (RK-13—a gift from Prof. Miller Whalley, Macquarie University) cells were seeded into 96 well plates and cultured in RPMI supplemented with 10% FCS (CSL, Australia), penicillin (100 U/ml), streptomycin ([…]), L-glutamine (2 mM) and sodium bicarbonate (1.2 g/L) at 37° C. and 5% CO2 for 24 hours until cells had attached and entered log phase of growth. Test compounds were added in serial two-fold dilutions from 150 μM in triplicate and incubated for a further 5 days. MTT was then added to each well, incubated for 3 hours at 37° C., after which the medium was tipped off. Following the addition of DMSO, the absorbance for each well was read on a plate reader. The assays were repeated at least twice.

[5] = treated rats compared with controls

Which “20-COOH-LTB4, % of maximum release” value ([1]; 0.1 μM) does the source give for `CN(C)Cc1cc2c(cc1O)OCC(c1ccc(O)cc1)=C2` [Compound (1)] here?
The value was 82.0%.

And the “20-OH-LTB4, % of maximum release” value ([1]; 0.1 μM)?
Its value is 95.2%.

What about the “LTB4, % of maximum release” value ([1]; 0.1 μM) of the same compound?
Its value is 94.3%.

What about the “20-COOH-LTB4, % of maximum release” value ([1]; 1 μM) of the same compound?
Its value is 99.6%.

What about the “20-OH-LTB4, % of maximum release” value ([1]; 1 μM) of the same compound?
The value was 77.7%.

And the “LTB4, % of maximum release” value ([1]; 1 μM)?
Its value is 78.1%.

What about the “20-COOH-LTB4, % of maximum release” value ([1]; 10 μM) of the same compound?
Its value is 0.0%.

What about the “20-OH-LTB4, % of maximum release” value ([1]; 10 μM) of the same compound?
The value was 0.0%.

What about the “LTB4, % of maximum release” value ([1]; 10 μM) of the same compound?
Its value is 0.0%.

What about the IC50 [1] of the same compound?
Its IC50 is 4.3 µM.

And the “Cells in lavage fluid (×10^−7)” value [2]?
The value was 0.43 ± 0.21^b ×10^−7.

What about the “PMN in tissue sections (per 100 squares)” value [2] of the same compound?
Its value is 13.03 ± 7.10 per 100 squares.

And the “Number of extravasated PMN in the pouch wall, fold less than controls” value [2, 5]?
The value was “more than 3 fold”.

What about the “Number of exudate cells in the pouch cavity, fold less than controls” value [2, 5] of the same compound?
The value was “more than 3 fold”.

What about the “Microscopic appearance of treated cells” value [3] of the same compound?
The value was “appeared healthy”.

What about the IC50 [4] of the same compound?
Its IC50 is 64.1 ± 9.6 µM.

Which results are given for `O=C(O)C1CCCN1Cc1cc2c(cc1O)OCC(c1ccc(O)cc1)=C2` (stereo not drawn) [Compound (3)]?
20-COOH-LTB4, % of maximum release ([1]; 0.1 μM): 114.9%; 20-OH-LTB4, % of maximum release ([1]; 0.1 μM): 82.8%; LTB4, % of maximum release ([1]; 0.1 μM): 93.6%; 20-COOH-LTB4, % of maximum release ([1]; 1 μM): 105.7%; 20-OH-LTB4, % of maximum release ([1]; 1 μM): 99.0%; LTB4, % of maximum release ([1]; 1 μM): 97.0%; 20-COOH-LTB4, % of maximum release ([1]; 10 μM): 145.2%; 20-OH-LTB4, % of maximum release ([1]; 10 μM): 6.1%; LTB4, % of maximum release ([1]; 10 μM): 0.0%; IC50 [1]: 5.4 µM; Cells in lavage fluid (×10^−7) [2]: 1.73 ± 0.84 ×10^−7; PMN in tissue sections (per 100 squares) [2]: 35.85 ± 12.89 per 100 squares; Microscopic appearance of treated cells [3]: appeared healthy; IC50 [4]: 111 ± 67.1 µM
